Assay results taken from patent US8952024B2, “Herbicidal pyrimidone derivatives” (E I du Pont de Nemours and Company, priority 2009, dated 2015).

Experiments:
Experiment in all cases: Test B pre-/postemergence plant response
Format in all cases: in vivo
[1] = test system: velvetleaf (Abutilon theophrasti); conditions: for Velvetleaf plant response rating (0 to 100 scale): 62 g ai/ha, postemergence, 0 is no effect, 100 is complete control; for Plant response rating, Velvetleaf: Postemergence
Summary of the method: (§1)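 Response scores were assigned visually after 13 to 15 days in a greenhouse, comparing treated pots with controls on a 0–100 scale where 100 denotes complete control. Preemergence treatments went onto freshly seeded loam/sand soil; postemergence treatments onto plants 2 to 18 cm tall.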

[2] = test system: wheat (Triticum aestivum); conditions: for Wheat plant response rating (0 to 100 scale): 62 g ai/ha, postemergence, 0 is no effect, 100 is complete control; for Plant response rating, Wheat: Postemergence
Summary of the method: as §1

kochia (Kochia scoparia) = conditions: for Kochia plant response rating (0 to 100 scale): 62 g ai/ha, postemergence, 0 is no effect, 100 is complete control; for Plant response rating, Kochia: Postemergence
Summary of the method: as §1

[3] = test system: pigweed (Amaranthus retroflexus); conditions: for Pigweed plant response rating (0 to 100 scale): 62 g ai/ha, postemergence, 0 is no effect, 100 is complete control; for Plant response rating, Pigweed: Postemergence
Summary of the method: as §1

[4] = test system: woolly cupgrass (Eriochloa villosa); conditions: for Cupgrass, Woolly plant response rating (0 to 100 scale): 62 g ai/ha, postemergence, 0 is no effect, 100 is complete control; for Plant response rating, Cupgrass, Woolly: Postemergence
Summary of the method: as §1

[5] = test system: downy bromegrass (Bromus tectorum); conditions: for Bromegrass, Downy plant response rating (0 to 100 scale): 62 g ai/ha, postemergence, 0 is no effect, 100 is complete control; for Plant response rating, Bromegrass, Downy: Postemergence
Summary of the method: as §1

[6] = test system: lambsquarters (Chenopodium album); conditions: for Lambsquarters plant response rating (0 to 100 scale): 62 g ai/ha, postemergence, 0 is no effect, 100 is complete control; for Plant response rating, Lambsquarters: Postemergence
Summary of the method: as §1

[7] = test system: green foxtail (Setaria viridis); conditions: for Foxtail, Green plant response rating (0 to 100 scale): 62 g ai/ha, postemergence, 0 is no effect, 100 is complete control; for Plant response rating, Foxtail, Green: Postemergence
Summary of the method: as §1

[8] = test system: giant foxtail (Setaria faberii); conditions: for Foxtail, Giant plant response rating (0 to 100 scale): 62 g ai/ha, postemergence, 0 is no effect, 100 is complete control; for Plant response rating, Foxtail, Giant: Postemergence
Summary of the method: as §1

[9] = test system: large crabgrass (Digitaria sanguinalis); conditions: for Crabgrass, Large plant response rating (0 to 100 scale): 62 g ai/ha, postemergence, 0 is no effect, 100 is complete control; for Plant response rating, Crabgrass, Large: Postemergence
Summary of the method: as §1

[10] = test system: yellow nutsedge (Cyperus esculentus); conditions: for Nutsedge, Yellow plant response rating (0 to 100 scale): 62 g ai/ha, postemergence, 0 is no effect, 100 is complete control; for Plant response rating, Nutsedge, Yellow: Postemergence
Summary of the method: as §1

[11] = test system: johnsongrass (Sorghum halepense); conditions: for Johnsongrass plant response rating (0 to 100 scale): 62 g ai/ha, postemergence, 0 is no effect, 100 is complete control; for Plant response rating, Johnsongrass: Postemergence
Summary of the method: as §1

[12] = test system: goosegrass (Eleusine indica); conditions: for Goosegrass plant response rating (0 to 100 scale): 62 g ai/ha, postemergence, 0 is no effect, 100 is complete control; for Plant response rating, Goosegrass: Postemergence
Summary of the method: as §1

[13] = 31 g ai/ha, 0 to 100 scale (0 no effect, 100 complete control)
[14] = 125 g ai/ha, scale 0 to 100 (0 no effect, 100 complete control)
[15] = 250 g ai/ha, scale 0 to 100 (0 no effect, 100 complete control), 13 to 15 days

COCCn1c(-c2cccc(Cl)c2)ncc(C(=O)C2=C(O)CCCC2=O)c1=O [Compound 147]
80: Velvetleaf plant response rating (0 to 100 scale) ([1]; 13 to 15 days) | Plant response rating, Kochia (kochia (Kochia scoparia); [14]) | Plant response rating, Cupgrass, Woolly [4, 14] | Plant response rating, Cupgrass, Woolly [4, 15] | Plant response rating, Foxtail, Green [7, 14] | Foxtail, Giant plant response rating (0 to 100 scale) ([8]; 13 to 15 days) | Plant response rating, Goosegrass [12, 14]
60: Plant response rating, Velvetleaf [1, 13] | Plant response rating, Crabgrass, Large [9, 13] | Nutsedge, Yellow plant response rating (0 to 100 scale) ([10]; 13 to 15 days) | Plant response rating, Johnsongrass [11, 14] | Plant response rating, Johnsongrass [11, 15]
95: Plant response rating, Velvetleaf [1, 14] | Pigweed plant response rating (0 to 100 scale) ([3]; 13 to 15 days) | Lambsquarters plant response rating (0 to 100 scale) ([6]; 13 to 15 days) | Plant response rating, Goosegrass [12, 15]
65: Plant response rating, Cupgrass, Woolly [4, 13] | Foxtail, Green plant response rating (0 to 100 scale) ([7]; 13 to 15 days) | Plant response rating, Foxtail, Giant [8, 13]
40: Plant response rating, Kochia (kochia (Kochia scoparia); [13]) | Plant response rating, Foxtail, Green [7, 13] | Johnsongrass plant response rating (0 to 100 scale) ([11]; 13 to 15 days)
35: Plant response rating, Goosegrass [12, 13]
70: Cupgrass, Woolly plant response rating (0 to 100 scale) ([4]; 13 to 15 days) | Plant response rating, Nutsedge, Yellow [10, 14] | Goosegrass plant response rating (0 to 100 scale) ([12]; 13 to 15 days)
85: Plant response rating, Pigweed [3, 13] | Plant response rating, Lambsquarters [6, 13] | Plant response rating, Foxtail, Giant [8, 14] | Plant response rating, Crabgrass, Large [9, 14]
98: Plant response rating, Lambsquarters [6, 14]
90: Plant response rating, Foxtail, Green [7, 15] | Plant response rating, Foxtail, Giant [8, 15] | Plant response rating, Crabgrass, Large [9, 15]
0: Plant response rating, Wheat [2, 13] | Plant response rating, Bromegrass, Downy [5, 13]
10: Plant response rating, Wheat [2, 15] | Plant response rating, Bromegrass, Downy [5, 15]
50: Plant response rating, Nutsedge, Yellow [10, 13]
100: Plant response rating, Velvetleaf [1, 15] | Plant response rating, Kochia (kochia (Kochia scoparia); [15]) | Plant response rating, Pigweed [3, 14] | Plant response rating, Pigweed [3, 15] | Plant response rating, Lambsquarters [6, 15]
5: Wheat plant response rating (0 to 100 scale) ([2]; 13 to 15 days) | Plant response rating, Wheat [2, 14] | Bromegrass, Downy plant response rating (0 to 100 scale) ([5]; 13 to 15 days) | Plant response rating, Bromegrass, Downy [5, 14]
75: Kochia plant response rating (0 to 100 scale) (kochia (Kochia scoparia); 13 to 15 days) | Crabgrass, Large plant response rating (0 to 100 scale) ([9]; 13 to 15 days) | Plant response rating, Nutsedge, Yellow [10, 15]
15: Plant response rating, Johnsongrass [11, 13]

CCCn1c(-c2cc(F)cc(F)c2)ncc(C(=O)C2=C(O)CCCC2=O)c1=O [Compound 152]
90: Plant response rating, Wheat [2, 15] | Johnsongrass plant response rating (0 to 100 scale) ([11]; 13 to 15 days)
55: Bromegrass, Downy plant response rating (0 to 100 scale) ([5]; 13 to 15 days)
75: Foxtail, Green plant response rating (0 to 100 scale) ([7]; 13 to 15 days) | Plant response rating, Foxtail, Green [7, 13] | Plant response rating, Crabgrass, Large [9, 13] | Nutsedge, Yellow plant response rating (0 to 100 scale) ([10]; 13 to 15 days)
98: Pigweed plant response rating (0 to 100 scale) ([3]; 13 to 15 days) | Cupgrass, Woolly plant response rating (0 to 100 scale) ([4]; 13 to 15 days) | Plant response rating, Cupgrass, Woolly [4, 14] | Plant response rating, Lambsquarters [6, 14] | Plant response rating, Foxtail, Green [7, 14] | Plant response rating, Foxtail, Giant [8, 15] | Plant response rating, Goosegrass [12, 15]
30: Plant response rating, Bromegrass, Downy [5, 13]
70: Plant response rating, Johnsongrass [11, 13]
80: Plant response rating, Foxtail, Giant [8, 13] | Plant response rating, Nutsedge, Yellow [10, 14] | Plant response rating, Nutsedge, Yellow [10, 15] | Plant response rating, Goosegrass [12, 13]
60: Plant response rating, Bromegrass, Downy [5, 14]
85: Plant response rating, Velvetleaf [1, 13] | Plant response rating, Wheat [2, 14] | Plant response rating, Bromegrass, Downy [5, 15] | Plant response rating, Lambsquarters [6, 13] | Foxtail, Giant plant response rating (0 to 100 scale) ([8]; 13 to 15 days) | Crabgrass, Large plant response rating (0 to 100 scale) ([9]; 13 to 15 days) | Goosegrass plant response rating (0 to 100 scale) ([12]; 13 to 15 days)
35: Plant response rating, Wheat [2, 13]
95: Velvetleaf plant response rating (0 to 100 scale) ([1]; 13 to 15 days) | Plant response rating, Kochia (kochia (Kochia scoparia); [14]) | Plant response rating, Pigweed [3, 13] | Plant response rating, Cupgrass, Woolly [4, 13] | Lambsquarters plant response rating (0 to 100 scale) ([6]; 13 to 15 days) | Plant response rating, Foxtail, Giant [8, 14] | Plant response rating, Crabgrass, Large [9, 14] | Plant response rating, Crabgrass, Large [9, 15] | Plant response rating, Johnsongrass [11, 14] | Plant response rating, Goosegrass [12, 14]
65: Kochia plant response rating (0 to 100 scale) (kochia (Kochia scoparia); 13 to 15 days) | Plant response rating, Nutsedge, Yellow [10, 13]
100: Plant response rating, Velvetleaf [1, 14] | Plant response rating, Velvetleaf [1, 15] | Plant response rating, Kochia (kochia (Kochia scoparia); [15]) | Plant response rating, Pigweed [3, 14] | Plant response rating, Pigweed [3, 15] | Plant response rating, Cupgrass, Woolly [4, 15] | Plant response rating, Lambsquarters [6, 15] | Plant response rating, Foxtail, Green [7, 15] | Plant response rating, Johnsongrass [11, 15]
10: Plant response rating, Kochia (kochia (Kochia scoparia); [13])
50: Wheat plant response rating (0 to 100 scale) ([2]; 13 to 15 days)
